Measurements taken from PubChem BioAssay AID1963837 (Molecular Pharmacology Branch, DTP, NCI, 2024).

Tested on: 843126-344-R-J1-PDC complex spheroid viability
Assay: Anticancer human tumor 843126-344-R-J1-PDC patient-derived melanoma cell line growth inhibition [POLQ]
Settings: for IC50: curve of first compound; for viability, T/C: stronger effect = lower value
Summary of the method: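 Complex spheroid viability model combining PDC tumour cells with endothelial (HUVEC) and MSC stromal cells. Novobiocin, ART-558 or RP6685 were tested singly and in combination with standard and investigational anticancer drugs. Each was titrated in half-log steps from near clinical Cmax, or from 10 microM where Cmax was unknown.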

[1] = second compound 0.0316 µM, first compound 0.0316 µM
[2] = second compound 0.0316 µM, first compound 0.1 µM
[3] = second compound 0.0316 µM, first compound 0.316 µM
[4] = second compound 0.0316 µM, first compound 1 µM
[5] = second compound 0.0316 µM, first compound 3.16 µM
[6] = second compound 0.0316 µM, first compound 10 µM
[7] = second compound 0.1 µM, first compound 0.0316 µM
[8] = second compound 0.1 µM, first compound 0.1 µM
[9] = second compound 0.1 µM, first compound 0.316 µM
[10] = second compound 0.1 µM, first compound 1 µM
[11] = second compound 0.1 µM, first compound 3.16 µM
[12] = second compound 0.1 µM, first compound 10 µM
[13] = second compound 0.316 µM, first compound 0.0316 µM
[14] = second compound 0.316 µM, first compound 0.1 µM
[15] = second compound 0.316 µM, first compound 0.316 µM
[16] = second compound 0.316 µM, first compound 1 µM
[17] = second compound 0.316 µM, first compound 3.16 µM
[18] = second compound 0.316 µM, first compound 10 µM
[19] = second compound 1 µM, first compound 0.0316 µM
[20] = second compound 1 µM, first compound 0.1 µM
[21] = second compound 1 µM, first compound 0.316 µM
[22] = second compound 1 µM, first compound 1 µM
[23] = second compound 1 µM, first compound 3.16 µM
[24] = second compound 1 µM, first compound 10 µM
[25] = second compound 3.16 µM, first compound 0.0316 µM
[26] = second compound 3.16 µM, first compound 0.1 µM
[27] = second compound 3.16 µM, first compound 0.316 µM
[28] = second compound 3.16 µM, first compound 1 µM
[29] = second compound 3.16 µM, first compound 3.16 µM
[30] = second compound 3.16 µM, first compound 10 µM
[31] = second compound 10 µM, first compound 0.0316 µM
[32] = second compound 10 µM, first compound 0.1 µM
[33] = second compound 10 µM, first compound 0.316 µM
[34] = second compound 10 µM, first compound 1 µM
[35] = second compound 10 µM, first compound 3.16 µM
[36] = second compound 10 µM, first compound 10 µM
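Wherever viability, T/C is given: spheroids exposed to drugs for seven days before readout.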

Structure (SMILES): CCCS(=O)(=O)Nc1ccc(F)c(C(=O)c2c[nH]c3ncc(-c4ccc(Cl)cc4)cc23)c1F + COC1C(OC(N)=O)C(O)C(Oc2ccc3c(O)c(NC(=O)c4ccc(O)c(CC=C(C)C)c4)c(=O)oc3c2C)OC1(C)C
- IC50 (second compound 0.0316 µM): > 10 µM
- IC50 (second compound 0.1 µM): > 10 µM
- IC50 (second compound 0.316 µM): > 10 µM
- IC50 (second compound 1 µM): > 10 µM
- IC50 (second compound 3.16 µM): > 10 µM
- IC50 (second compound 10 µM): > 10 µM
- viability, T/C [1]: 88.8%
- viability, T/C [2]: 87.5%
- viability, T/C [3]: 62.7%
- viability, T/C [4]: 72.9%
- viability, T/C [5]: 75.6%
- viability, T/C [6]: 60%
- viability, T/C [7]: 77.5%
- viability, T/C [8]: 81.7%
- viability, T/C [9]: 84.5%
- viability, T/C [10]: 64.5%
- viability, T/C [11]: 72.5%
- viability, T/C [12]: 72.5%
- viability, T/C [13]: 78.5%
- viability, T/C [14]: 97.1%
- viability, T/C [15]: 86.3%
- viability, T/C [16]: 70.5%
- viability, T/C [17]: 71.7%
- viability, T/C [18]: 70.8%
- viability, T/C [19]: 82.2%
- viability, T/C [20]: 98.2%
- viability, T/C [21]: 80.4%
- viability, T/C [22]: 87.6%
- viability, T/C [23]: 65.5%
- viability, T/C [24]: 65%
- viability, T/C [25]: 92.1%
- viability, T/C [26]: 77.9%
- viability, T/C [27]: 91.2%
- viability, T/C [28]: 72.6%
- viability, T/C [29]: 77.9%
- viability, T/C [30]: 77.2%
- viability, T/C [31]: 83.2%
- viability, T/C [32]: 106%
- viability, T/C [33]: 83.2%
- viability, T/C [34]: 75.2%
- viability, T/C [35]: 75.3%
- viability, T/C [36]: 64.3%

Structure (SMILES): CCc1cc2c(N3CCc4c(cc(Cn5ccnc5)cc4-c4cn(C)nc4C(F)(F)F)C3=O)ccnc2c(OC)n1 + COC1C(OC(N)=O)C(O)C(Oc2ccc3c(O)c(NC(=O)c4ccc(O)c(CC=C(C)C)c4)c(=O)oc3c2C)OC1(C)C
- IC50 (second compound 0.0316 µM): > 10 µM
- IC50 (second compound 0.1 µM): 8.32 µM
- IC50 (second compound 0.316 µM): > 10 µM
- IC50 (second compound 1 µM): > 10 µM
- IC50 (second compound 3.16 µM): > 10 µM
- IC50 (second compound 10 µM): > 10 µM
- viability, T/C [1]: 94.1%
- viability, T/C [2]: 88.3%
- viability, T/C [3]: 87.3%
- viability, T/C [4]: 78.4%
- viability, T/C [5]: 62.2%
- viability, T/C [6]: 60.8%
- viability, T/C [7]: 82%
- viability, T/C [8]: 99.8%
- viability, T/C [9]: 92.2%
- viability, T/C [10]: 70.4%
- viability, T/C [11]: 63%
- viability, T/C [12]: 46.5%
- viability, T/C [13]: 99.5%
- viability, T/C [14]: 78%
- viability, T/C [15]: 78%
- viability, T/C [16]: 73.1%
- viability, T/C [17]: 76.6%
- viability, T/C [18]: 62%
- viability, T/C [19]: 84.5%
- viability, T/C [20]: 93.8%
- viability, T/C [21]: 78.2%
- viability, T/C [22]: 80.6%
- viability, T/C [23]: 65%
- viability, T/C [24]: 57.2%
- viability, T/C [25]: 78.4%
- viability, T/C [26]: 99.7%
- viability, T/C [27]: 87.2%
- viability, T/C [28]: 72.6%
- viability, T/C [29]: 67.6%
- viability, T/C [30]: 61%
- viability, T/C [31]: 80.8%
- viability, T/C [32]: 79.7%
- viability, T/C [33]: 79.5%
- viability, T/C [34]: 78.5%
- viability, T/C [35]: 61.7%
- viability, T/C [36]: 66.1%

Structure (SMILES): CNCc1ccc(-c2[nH]c3cc(F)cc4c3c2CCNC4=O)cc1 + COC1C(OC(N)=O)C(O)C(Oc2ccc3c(O)c(NC(=O)c4ccc(O)c(CC=C(C)C)c4)c(=O)oc3c2C)OC1(C)C
- IC50 (second compound 0.0316 µM): > 10 µM
- IC50 (second compound 0.1 µM): > 10 µM
- IC50 (second compound 0.316 µM): > 10 µM
- IC50 (second compound 1 µM): > 10 µM
- IC50 (second compound 3.16 µM): > 10 µM
- IC50 (second compound 10 µM): > 10 µM
- viability, T/C [1]: 84.8%
- viability, T/C [2]: 94%
- viability, T/C [3]: 98.3%
- viability, T/C [4]: 92.3%
- viability, T/C [5]: 86.8%
- viability, T/C [6]: 87%
- viability, T/C [7]: 88%
- viability, T/C [8]: 102%
- viability, T/C [9]: 115%
- viability, T/C [10]: 94.3%
- viability, T/C [11]: 99.7%
- viability, T/C [12]: 87.1%
- viability, T/C [13]: 98.7%
- viability, T/C [14]: 88.6%
- viability, T/C [15]: 90.7%
- viability, T/C [16]: 96.1%
- viability, T/C [17]: 108%
- viability, T/C [18]: 70.5%
- viability, T/C [19]: 109%
- viability, T/C [20]: 98.6%
- viability, T/C [21]: 97.8%
- viability, T/C [22]: 95.8%
- viability, T/C [23]: 90.5%
- viability, T/C [24]: 74.6%
- viability, T/C [25]: 99.9%
- viability, T/C [26]: 96.9%
- viability, T/C [27]: 92%
- viability, T/C [28]: 101%
- viability, T/C [29]: 82.2%
- viability, T/C [30]: 85.4%
- viability, T/C [31]: 78.6%
- viability, T/C [32]: 97%
- viability, T/C [33]: 81%
- viability, T/C [34]: 100%
- viability, T/C [35]: 85.9%
- viability, T/C [36]: 100%

Structure (SMILES): COc1cccc(OCCCN)c1-c1cc(Nc2cnc(C#N)cn2)n[nH]1 + COC1C(OC(N)=O)C(O)C(Oc2ccc3c(O)c(NC(=O)c4ccc(O)c(CC=C(C)C)c4)c(=O)oc3c2C)OC1(C)C
- IC50 (second compound 0.0316 µM): 0.0871 µM
- IC50 (second compound 0.1 µM): 0.156 µM
- IC50 (second compound 0.316 µM): 0.135 µM
- IC50 (second compound 1 µM): 0.347 µM
- IC50 (second compound 3.16 µM): 0.29 µM
- IC50 (second compound 10 µM): 0.153 µM
- viability, T/C (second compound 0.0316 µM, first compound 0.00316 µM): 78.6%
- viability, T/C (second compound 0.0316 µM, first compound 0.01 µM): 85.6%
- viability, T/C [1]: 77.7%
- viability, T/C [2]: 45.8%
- viability, T/C [3]: 46.3%
- viability, T/C [4]: 31.8%
- viability, T/C (second compound 0.1 µM, first compound 0.00316 µM): 93.3%
- viability, T/C (second compound 0.1 µM, first compound 0.01 µM): 81.8%
- viability, T/C [7]: 73.2%
- viability, T/C [8]: 52%
- viability, T/C [9]: 44.1%
- viability, T/C [10]: 34.7%
- viability, T/C (second compound 0.316 µM, first compound 0.00316 µM): 79.9%
- viability, T/C (second compound 0.316 µM, first compound 0.01 µM): 76.8%
- viability, T/C [13]: 65.3%
- viability, T/C [14]: 54.9%
- viability, T/C [15]: 39.8%
- viability, T/C [16]: 38.6%
- viability, T/C (second compound 1 µM, first compound 0.00316 µM): 96%
- viability, T/C (second compound 1 µM, first compound 0.01 µM): 76.9%
- viability, T/C [19]: 76%
- viability, T/C [20]: 64.7%
- viability, T/C [21]: 52%
- viability, T/C [22]: 36.6%
- viability, T/C (second compound 3.16 µM, first compound 0.00316 µM): 88.6%
- viability, T/C (second compound 3.16 µM, first compound 0.01 µM): 85.2%
- viability, T/C [25]: 65.3%
- viability, T/C [26]: 68.2%
- viability, T/C [27]: 49.4%
- viability, T/C [28]: 31.8%
- viability, T/C (second compound 10 µM, first compound 0.00316 µM): 72.7%
- viability, T/C (second compound 10 µM, first compound 0.01 µM): 76.2%
- viability, T/C [31]: 70.2%
- viability, T/C [32]: 55.5%
- viability, T/C [33]: 40.8%
- viability, T/C [34]: 37.2%
